Measured values taken from patent US12472177B2, “Bicyclic compounds and methods for their use in treating Pitt Hopkins syndrome” (NEUREN PHARMACEUTICALS LIMITED, priority 2019, dated 2025).

Tests used:
Tcf4^+/− mice = assay: Social interaction / sociability (time sniffing a novel mouse); format: in vivo; set-up: key to Sociability: Tukey’s Multiple Comparison Test Summary: **** = p < 0.00001; ns = not significant
Description: In vivo behavioral studies were conducted in Tcf4^+/− mutant and wildtype littermate control (WT) mice by Gen.DDI (Santiago, Chile). Littermate controls consist of the genotypes Tcf4^+/+. All Tcf4 mutant mice used were heterozygous for the Tcf4 mutation because homozygous mutations of Tcf4 result in embryonic to postnatal day 1 lethality. Ten mice per treatment group, 14 weeks of age, were used for behavioral experiments. Experiments were conducted in line with the requirements of the UK Animals (Scientific Procedures) Act, 1986. The mice were housed in plastic cages (35×30×12 cm), 5 in each and habituated to the animal facilities for at least a week before commencing the test. The room temperature (21° C.±2° C.), relative humidity (55%±5%), a 12-hour light-dark cycle (lights on 7 AM to 7 PM), and air exchange were automatically controlled. The animals had free access to commercial food pellets and water. Testing was performed during the light phase of the circadian cycle, with the order of testing being determined by the principle of conducting the most stressful tests last. Assays were designed to reproduce and expand on the original behavioral characterization of Tcf4^+/− mice. Tcf4^+/− and WT control mice were treated for 6 weeks prior to testing and tested 30 minutes following a dose of cG-2-AllylP, as described in Table 2 below.
Social recognition and social memory in humans are very important. People with PTHS show lower amounts of social recognition and memory compared with people without PTHS. […] Therefore, to determine if NNZ-2591 (cG-2-AllylP) could be effective in normalizing this condition, we carried out a series of studies in mice, in which we determined the amount of time that mice spent sniffing a novel mouse.
To carry out these studies, mice were evaluated by the amount of time spent sniffing a novel mouse upon repeated exposures, to induce familiarity, and reinstatement of high levels of sniffing when a novel stimulus animal is introduced. We measured the number of bouts of sniffing in each of the groups of animals. The time spent sniffing a novel mouse is shown on the vertical axis and the animals and treatments are shown on the horizontal axis.

[1] = Delivery of cG-2-AllylP into the brain after oral administration (CSF, blood, brain exposure); format: in vivo, Sprague Dawley rats; conditions: rat
Description: In an in vivo study, male Sprague Dawley rats (aged 14 weeks) received a single dose of cG-2-AllylP, either 100 mg/kg or 200 mg/kg by oral gavage. Cerebrospinal fluid (CSF) and whole blood were collected at 1.5 and 4 hours postdose, and brain tissue was collected at 4 hours postdose to evaluate cG-2-AllylP exposure.

[2] = single oral dose 100 mg/kg, 1.5 h postdose
[3] = single oral dose 100 mg/kg, 4 h postdose
[4] = single oral dose 200 mg/kg, 1.5 h postdose
[5] = single oral dose 200 mg/kg, 4 h postdose

- Dose dependence of concentration in blood, CSF and brain ([1]; 100 vs 200 mg/kg single oral dose, blood and CSF at 1.5 h, blood, CSF and brain at 4 h): approximately proportional increase
- Concentration in blood compared with brain tissue ([1]; 4 hours post dose): approximately equivalent
- Concentration of cG-2-AllylP in Blood [1, 2]: 58500 ng/mL
- Concentration of cG-2-AllylP in CSF [1, 2]: 40400 ng/mL
- Concentration of cG-2-AllylP in Blood [1, 3]: 15600 ng/mL
- Concentration of cG-2-AllylP in Brain [1, 3]: 22600 ng/mL
- Concentration of cG-2-AllylP in CSF [1, 3]: 11000 ng/mL
- Concentration of cG-2-AllylP in Blood [1, 4]: 116000 ng/mL
- Concentration of cG-2-AllylP in CSF [1, 4]: 82200 ng/mL
- Concentration of cG-2-AllylP in Blood [1, 5]: 34200 ng/mL
- Concentration of cG-2-AllylP in Brain [1, 5]: 37000 ng/mL
- Concentration of cG-2-AllylP in CSF [1, 5]: 24700 ng/mL
Structure (SMILES): C=CC[C@]12CCCN1C(=O)CNC2=O [cG-2-AllylP, (8aS)-Allyl-hexahydropyrrolo[1,2-a]pyrazine-1,4-dione]
- Sociability: Tukey’s Multiple Comparison Test Summary (Tcf4^+/− mice; Tcf4^+/− + cG-02-AllylP (100 mg/kg) vs Tcf4^+/− + cG-2-AllylP (200 mg/kg)): ns
- Sociability: Tukey’s Multiple Comparison Test Summary (Tcf4^+/− mice; Tcf4^+/− + cG-2-AllylP (100 mg/kg) vs WT + cG-2-AllylP (200 mg/kg)): ns
- Sociability: Tukey’s Multiple Comparison Test Summary (Tcf4^+/− mice; Tcf4^+/− + vehicle vs Tcf4^+/− + cG-2-AllylP (100 mg/kg)): **** (**** = p < 0.0001)
- Sociability: Tukey’s Multiple Comparison Test Summary (Tcf4^+/− mice; Tcf4^+/− + vehicle vs Tcf4^+/− + cG-2-AllylP (200 mg/kg)): **** (**** = p < 0.0001)
- Sociability: Tukey’s Multiple Comparison Test Summary (Tcf4^+/− mice; Tcf4^+/− + vehicle vs WT + cG-2-AllylP (100 mg/kg)): **** (**** = p < 0.0001)
- Sociability: Tukey’s Multiple Comparison Test Summary (Tcf4^+/− mice; Tcf4^+/− + vehicle vs WT + cG-2-AllylP (200 mg/kg)): **** (**** = p < 0.0001)
- Behavior Normalized to WildType Levels: Sociability (Tcf4^+/− mice; Tcf4^+/− mice, 100 mg/kg): ✓
- Time spent sniffing a novel mouse (Tcf4^+/− mice; Tcf4^+/− mice, 100 mg/kg oral BID 6 weeks, compared to Tcf4^+/− mice treated with vehicle only): substantial and statistically significant increases
- Behavior Normalized to WildType Levels: Sociability (Tcf4^+/− mice; Tcf4^+/− mice, 200 mg/kg): ✓
- Time spent sniffing a novel mouse (Tcf4^+/− mice; Tcf4^+/− mice, 200 mg/kg oral BID 6 weeks, compared to Tcf4^+/− mice treated with vehicle only): substantial and statistically significant increases
- Sociability: Tukey’s Multiple Comparison Test Summary (Tcf4^+/− mice; WT + cG-2-AllylP (100 mg/kg) vs Tcf4^+/− + cG-2-AllylP (100 mg/kg)): ns
- Sociability: Tukey’s Multiple Comparison Test Summary (Tcf4^+/− mice; WT + cG-2-AllylP (100 mg/kg) vs Tcf4^+/− + cG-2-AllylP (200 mg/kg)): ns
- Sociability: Tukey’s Multiple Comparison Test Summary (Tcf4^+/− mice; WT + cG-2-AllylP (100 mg/kg) vs WT + cG-2-AllylP (200 mg/kg)): ns
- Sociability: Tukey’s Multiple Comparison Test Summary (Tcf4^+/− mice; WT + cG-2-AllylP (200 mg/kg) vs Tcf4^+/− + cG-2-AllylP (200 mg/kg)): ns
- Sociability: Tukey’s Multiple Comparison Test Summary (Tcf4^+/− mice; WT + vehicle vs Tcf4^+/− + cG-2-AllylP (100 mg/kg)): ns
- Sociability: Tukey’s Multiple Comparison Test Summary (Tcf4^+/− mice; WT + vehicle vs Tcf4^+/− + cG-2-AllylP (200 mg/kg)): ns
- Sociability: Tukey’s Multiple Comparison Test Summary (Tcf4^+/− mice; WT + vehicle vs WT + cG-2-AllylP (100 mg/kg)): ns
- Time spent sniffing a novel mouse (Tcf4^+/− mice; WT mice, 100 mg/kg oral BID 6 weeks): nearly identical times
- Time spent sniffing a novel mouse (Tcf4^+/− mice; WT mice, 200 mg/kg oral BID 6 weeks): nearly identical times
